Bridge positions count the residues as written; N and C are the ends. Square brackets hold non-standard residues; d marks the D form. Ends that are not written are not given here. Peptide text beside a SMILES is read from it. Sar = CNCC(=O)O
Experiments:
[1] = system: methicillin resistant Staphylococcus aureus (MRSA); assay: Minimal inhibitory concentration, MRSA; format: cell-based
Procedure: (§1) The minimal inhibitory concentrations (MICs) of a variety of protegrins were determined against the following organisms: methicillin resistant Staphylococcus aureus (MRSA), Pseudomonas aeruginosa (Psa), vancomycin resistant Enterococcus fecium (VREF), Candida albicans (Candid) and Escherichia coli (E. Co), and are shown in Table 9.

[2] = system: Pseudomonas aeruginosa (Psa); assay: Minimal inhibitory concentration, Psa; format: cell-based
Procedure: as §1

[3] = system: vancomycin resistant Enterococcus fecium (VREF); assay: Minimal inhibitory concentration, VREF; format: cell-based
Procedure: as §1

[4] = system: E. coli ML-35P; assay: Radial diffusion assay in agarose gels, E. coli; format: cell-based; conditions: for activity against E. coli in NaCl (FIG. 5b): in the presence of 100 mM NaCl; for antibacterial activity against E. coli (FIG. 4a): radial diffusion, underlay agar pH 6.5
[5] = system: Listeria monocytogenes, strain EGD; assay: Radial diffusion assay in agarose gels, L. monocytogenes; format: cell-based; conditions: for antibacterial activity against Listeria monocytogenes (FIG. 4b): radial diffusion, underlay agar pH 6.5
Procedure: Aliquots (66 μl) of each fraction were dried by vacuum centrifugation and resuspended in 6.6 μl of 0.01% acetic acid. Five μl samples of this concentrate were tested for antimicrobial activity against E. coliML-3, L. monocytogenes, strain EGD and C. albicans, strain 820, using radiodiffusion and gel overlay techniques as described by Lehrer, R. I. et al. J Immunol Meth (1991) 137:167-173. […] The units of activity in the radial diffusion assay were measured as described; 10 units correspond to a 1 mm diameter clear zone around the sample well. Activity was found in a large number of fractions.
The radial diffusion assay in agarose gels described in Example 1 was also used to test the activity of the purified protegrins. FIGS. 4a, 4b and 4c show the results against three test organisms in units described as above.
The antimicrobial activity of the linearalized forms was also compared with that of the native protegrins. Both linearalized and cyclic forms of the protegrins tested continue to show antimicrobial activity, although the effectiveness of these peptides as antimicrobials depends on the nature of the target organism and on the test conditions. The antimicrobial activity of native PG-1 and its linearalized form (cam-PG-1) and PG-3 and its linearalized form (cam-PG-3) were tested according to the procedure set forth in Example 1 as described by Lehrer, R. I. et al. J Immunol Meth (1991) 137:167-173.
Using standard solid phase techniques, a protegrin having the amino acid sequence of PG-1, but wherein every amino acid is in the D form was prepared. This form of protegrin was tested against E. coli, L. monocytogenes, C. albicans and other microbes in the absence and presence of protease and otherwise as described for the radiodiffusion assay in agarose gels set forth in Example 1.
The kite and bullet PG-1 compounds prepared in Example 12 were tested for antimicrobial activity using the radial diffusion assay described in Example 1 as published by Lehrer, R. I. et al., J Immunol Meth (1991) 137:167-173, except that the underlay agars contained […] sodium phosphate buffer with a final pH of 7.4. As described in Example 1, 0.3 mg/ml tripticase soy broth powder and 1% agarose were used as well in the underlay agar. In some cases 100 mM NaCl or RPMI plus 2.5% normal human serum (NHS) was added to the agar.

[6] = system: C. albicans, strain 820; format: cell-based, Candida albicans; conditions: for activity against C. albicans in NaCl (FIG. 5a): in the presence of 100 mM NaCl; for antifungal activity against Candida albicans (FIG. 4c): radial diffusion, underlay agar pH 6.5
Procedure: Similarly, using C. albicans as a target organism, underlayers were prepared with 10 mM sodium phosphate with and without 10% normal human serum.

[7] = system: Staphylococcus aureus; assay: Radial diffusion assay in agarose gels, S. aureus; format: cell-based
[8] = system: K. pneumoneae 270; assay: Radial diffusion assay in agarose gels, K. pneumoniae; format: cell-based
[9] = biological target: human leukocyte elastase (Homo sapiens, UniProt P08246); format: in vitro ADME; conditions: pH 7
[10] = biological target: human leukocyte cathepsin G (Homo sapiens, UniProt P08311); format: in vitro ADME; conditions: pH 7
[11] = system: lipid polysaccharide (LPS) of E. coli strain 0.55B5; assay: Limulus amebocyte lysate (LAL) test for endotoxin binding; format: biochemical; conditions: for gel formation in LAL test: LPS 0.05 endotoxin unit/ml
[12] = system: T. pallidum; assay: Treponema pallidum immobilization assay; format: cell-based
Procedure: Bacteriocidal activity against this organism, which is the etiologic agent of syphilis, was also tested. Peptides were evaluated at a series of concentrations of 1.758 μg to 56.25 μg in 90 μl of unheated normal rabbit serum. The serum served as a nutrient for the spirochetes to allow their survival during incubation as well as providing a source of complement. Ten μl of a suspension of T. pallidum containing about 5×10^7/μl organisms was added to each tube and the mixtures with the appropriate peptides were incubated at 34° C. under 95 k N2 and 5% CO2. At time zero, just prior to incubation, 4 hours and 16 hours, 25 randomly selected organisms were examined for the presence or absence of motility. The 50 k immobilizing end point (IE50) was calculated to indicate the concentration needed to immobilize 50% of the spirochetes.

[13] = system: pepsin; conditions: 4 hours at pH 2.0 with 0.5 μg/ml pepsin, then neutralized
[14] = system: N. gonorrhoeae strains FA 19 and F 62
Procedure: Nonpiliated transparent variants of strains FA 19 and F 62 were propagated on GCB agar plates containing glucose and iron supplements overnight at 37° C. under 3.8% V/V CO2. These strains were chosen for their adaptability to the assay.
The overnight growth is removed from the agar plate and suspended in GCB broth containing supplements and sodium bicarbonate and grown with shaking at 37° C. to mid log phase. The culture is diluted 1:100 in GCB broth to give about 10^6 CFU/ml and serial dilutions were plated onto GCB agar.
Ten μl of each dilution is added to a sterile polystyrene tube containing 90 μl of diluted bacteria and the tubes are shaken at 37° C. for 45 minutes. The contents are serially diluted 1:10 and plated on to GCB agar plates which are incubated in a CO2 incubator. CFU are counted after 24 hours and the log bactericidal activity calculated.

[15] = system: Trichomonas vaginallis strain C1 (ATCC 30001); strains MR and TV; assay: Trichomonas vaginallis exposure assay
[16] = system: HIVJR-CSF and HIVJR-FL; assay: HIV infection of human peripheral blood mononuclear cells, p24 antigen
Procedure: Briefly, the mononuclear cell fraction is recovered from normal donor leukopacs from the American Red Cross using a Ficoll-hypaque density gradient. The mononuclear cells are resuspended at 1×10^6 cells per ml in RPMI 1640 medium with 20% fetal bovine serum, 1% penn/strep with fungizone and 0.5% PHA and incubated 24 hours at 37° C. in 5% CO2. The cells are centrifuged, washed and then expanded for 24 hours in growth medium.
Non-laboratory adapted, cloned HIVJR-CSF and HIVJR-FL were electroporated into the human peripheral blood mononuclear cells prepared as described above. Titers were determined and in general, multiplicities of infection (MOI) of about 4,000 infectious units per cell are used (which corresponds to 25-40 picograms per ml HIV p24 antigen in the supernatant).
In the assay, the HIV stocks prepared as above were diluted to the correct MOI and the PBM are added to 24 well plates at a concentration of 2×10^6 per ml. One μl total volume is added to each well. The peptide to be tested is added in growth medium to achieve the final desired concentration. Then the appropriate number of MOI are added. To assay viral growth, 200 μl of supernatant is removed on days 3 and 7 and the concentration of p24 antigen is determined using a commercial assay (Coulter Immunology, Hialeah, Fla.). Controls include duplicate wells containing cells alone, cells plus peptide at 5 μg/ml cells with virus but not peptide and cells with virus in the presence of AZT at 10^−5 M-10^−8 M.

[17] = system: Candida albicans; assay: Radial diffusion assay in 25 mM borate buffer, Candida albicans; format: cell-based; conditions: listed as nPG-3
[18] = system: L. monocytogenes; assay: Radial diffusion assay in 25 mM borate buffer, L. monocytogenes; format: cell-based; conditions: listed as nPG-3
[19] = system: E. coli; assay: Antimicrobial activity with and without lysozyme in borate buffered saline; format: cell-based; conditions: presence vs absence of lysozyme
Source text: This effect was more pronounced when the PG-3 was autoclaved and similar patterns were obtained for both the free-acid form and the amide. Accordingly, the protegrins may be used as preservatives in such compositions or as antimicrobials for treatment of eye infections.

human leukocyte elastase, sequence (P08246 30-267): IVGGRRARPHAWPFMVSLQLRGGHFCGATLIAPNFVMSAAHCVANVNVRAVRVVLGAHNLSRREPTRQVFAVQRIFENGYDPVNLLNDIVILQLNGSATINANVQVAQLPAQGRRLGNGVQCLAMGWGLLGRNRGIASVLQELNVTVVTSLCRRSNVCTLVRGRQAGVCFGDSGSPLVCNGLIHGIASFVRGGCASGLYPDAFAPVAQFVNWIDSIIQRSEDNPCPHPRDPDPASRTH
human leukocyte cathepsin G, sequence (P08311 21-244): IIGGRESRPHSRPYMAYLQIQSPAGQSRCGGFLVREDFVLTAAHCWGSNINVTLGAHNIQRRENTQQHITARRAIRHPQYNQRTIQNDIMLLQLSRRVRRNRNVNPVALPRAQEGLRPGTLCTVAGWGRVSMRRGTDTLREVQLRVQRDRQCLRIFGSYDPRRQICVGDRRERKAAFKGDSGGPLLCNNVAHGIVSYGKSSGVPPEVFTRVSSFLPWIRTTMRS

R-G-G-R-L-C-Y-C-R-X-R-F-C-V-C-V-G-R (X=NMeG) (RGGRLCYCR[Sar]RFCVCVGR-NH2; ends and bridges not checked) [IB-342]
minimal inhibitory concentration (MIC) MRSA [1]: 4 | minimal inhibitory concentration (MIC) Psa [2]: 1.67 | minimal inhibitory concentration (MIC) VREF [3]: 0.83

CC(C)C[C@H](NC(=O)[C@H](CCCNC(=N)N)NC(=O)CNC(=O)CNC(=O)[C@@H](N)CCCNC(=N)N)C(=O)N[C@H]1CSSC[C@@H](C(=O)N[C@H](C(=O)NCC(=O)N[C@@H](CCCNC(=N)N)C(N)=O)C(C)C)NC(=O)[C@H](C(C)C)NC(=O)[C@@H]2CSSC[C@H](NC(=O)[C@H](Cc3ccc(O)cc3)NC1=O)C(=O)N[C@@H](CCCNC(=N)N)C(=O)N[C@@H](CCCNC(=N)N)C(=O)N[C@@H](CCCNC(=N)N)C(=O)N[C@@H](Cc1ccccc1)C(=O)N2 [PG-1, R-G-G-R-L-C-Y-C-R-R-R-F-C-V-C-V-G-R]
inhibition of growth of E. coli (FIG. 12a) ([4]; absence of protease): equally effective | activity against E. coli in NaCl (FIG. 5b) [4]: retain their activity | antibacterial activity against E. coli (FIG. 4a) [4]: more effective against E. coli ML-35P than HNP-1 and only slightly less effective than NP-1 | inhibition of growth of L. monocytogenes (FIG. 12d) ([5]; absence of proteases): comparably active | inhibition of growth of L. monocytogenes (FIG. 12c) ([5]; presence of trypsin, chymotrypsin): adversely affected | antibacterial activity against Listeria monocytogenes (FIG. 4b) [5]: effective | activity against C. albicans in NaCl (FIG. 5a) [6]: retain their activity | antifungal activity against Candida albicans (FIG. 4c) [6]: effective | antibacterial activity against S. aureus (FIG. 4d) [7]: inhibit the growth | antibacterial activity against K. pneumoneae (FIG. 4e) [8]: inhibit the growth | degradation by human leukocyte elastase [9]: not degraded | degradation by human leukocyte cathepsin G [10]: not degraded | gel formation in LAL test ([11]; 1.0 μg peptide in 0.2 ml): no gel | gel formation in LAL test, cyclic vs linearalized (Table 3) ([11]; 2.5 μg peptide): no gel | gel formation in LAL test ([11]; 2.5 μg peptide in 0.2 ml): no gel | gel formation in LAL test, cyclic vs linearalized (Table 3) ([11]; 5 μg peptide): no gel | gel formation in LAL test ([11]; 5 μg peptide in 0.2 ml): no gel | gel formation in LAL test ([11]; 10 μg peptide in 0.2 ml): no gel | Activity against human STD pathogens: Treponema pallidum [12]: Active | residual antimicrobial activity against C. albicans, E. coli and L. monocytogenes after pepsin [13]: fully retained | Activity against human STD pathogens: Neisseria gonorrhoeae [14]: Active | Activity against human STD pathogens: Trichomonas vaginalis [15]: Moderately | growth in Diamond's medium after exposure ([15]; strain C1, 50 μg/ml): failed to grow | motility of T. vaginallis ([15]; strain C1, 50 μg/ml, RPMI+1% fetal calf serum, within a few minutes): became stationary | lysis of T. vaginallis ([15]; strain C1, 50 μg/ml, over the ensuing 15-30 minutes): lysed | susceptibility of metronidazole-resistant clinical isolates ([15]; strains MR and TV, 100 and 50 μg/ml): susceptible | Activity against human STD pathogens: HIV-1 [16]: Active | antiviral activity by time of addition ([16]; 2 hours prior to virus, at the time of virus, or 2 hours after infection): showed antiviral activity | antiviral activity by time of addition ([16]; added 24 hours after infection): no antiviral activity

CC(C)C[C@H](NC(=O)CNC(=O)CNC(=O)CNC(=O)[C@@H](N)CCCNC(=N)N)C(=O)N[C@H]1CSSC[C@@H](C(=O)N[C@H](C(=O)NCC(=O)N[C@@H](CCCNC(=N)N)C(N)=O)C(C)C)NC(=O)[C@H](C(C)C)NC(=O)[C@@H]2CSSC[C@H](NC(=O)[C@H](Cc3ccc(O)cc3)NC1=O)C(=O)N[C@@H](CCCNC(=N)N)C(=O)N[C@@H](CCCNC(=N)N)C(=O)N[C@@H](CCCNC(=N)N)C(=O)N[C@@H](Cc1ccccc1)C(=O)N2 [PG-3, R-G-G-G-L-C-Y-C-R-R-R-F-C-V-C-V-G-R] (H-RGGGLCYCRRRFCVCVGR-NH2; disulfide 6-15, 8-13; N-terminus assumed)
activity against E. coli in NaCl (FIG. 5b) [4]: retain their activity | antibacterial activity against E. coli (FIG. 4a) [4]: more effective against E. coli ML-35P than HNP-1 and only slightly less effective than NP-1 | antibacterial activity against Listeria monocytogenes (FIG. 4b) [5]: effective | activity against Candida albicans in fetal calf serum (FIG. 5c) ([6]; 90% fetal calf serum): retained | activity against C. albicans in NaCl (FIG. 5a) [6]: retain their activity | antifungal activity against Candida albicans (FIG. 4c) [6]: effective | degradation by human leukocyte elastase [9]: not degraded | degradation by human leukocyte cathepsin G [10]: not degraded | gel formation in LAL test, cyclic vs linearalized (Table 3) ([11]; 2.5 μg peptide): no gel | gel formation in LAL test ([11]; 2.5 μg peptide in 0.2 ml, listed as nPG-3): trace | gel formation in LAL test, cyclic vs linearalized (Table 3) ([11]; 5 μg peptide): no gel | gel formation in LAL test ([11]; 5 μg peptide in 0.2 ml): no gel | gel formation in LAL test ([11]; 10 μg peptide in 0.2 ml): no gel | ESTIMATED MINIMAL FUNGICIDAL CONCENTRATIONS ([17]; 25 mM borate buffer): 32.0 µg/mL | ESTIMATED MINIMAL FUNGICIDAL CONCENTRATIONS ([17]; borate buffer + 120 mM NaCl): 9.0 µg/mL | ESTIMATED MINIMAL FUNGICIDAL CONCENTRATIONS ([17]; borate buffer + EDTA & NaCl): 8.0 µg/mL | ESTIMATED MINIMAL BACTERICIDAL CONCENTRATIONS ([18]; 25 mM borate buffer): 25.0 µg/mL | ESTIMATED MINIMAL BACTERICIDAL CONCENTRATIONS ([18]; borate buffer + 120 mM NaCl): 7.0 µg/mL | ESTIMATED MINIMAL BACTERICIDAL CONCENTRATIONS ([18]; borate buffer + EDTA & NaCl): 5.7 µg/mL | effect of lysozyme on effectiveness against E. coli [19]: enhanced the effectiveness | residual antimicrobial activity against C. albicans, E. coli and L. monocytogenes after pepsin [13]: fully retained | motility of T. vaginallis ([15]; 25 μg/ml): retained their motility

R-G-G-R-L-C-Y-C-R-X-R-F-C-V-C-V-G-R-OH (X=NMeG) (RGGRLCYCR[Sar]RFCVCVGR-OH; ends and bridges not checked) [IB-341]
minimal inhibitory concentration (MIC) MRSA [1]: 5.33 | minimal inhibitory concentration (MIC) Psa [2]: 2 | minimal inhibitory concentration (MIC) VREF [3]: 1
